Measurements as given in US20180116993A1, “MODULATORS OF FARNESOID X RECEPTOR AND METHODS FOR THE USE THEREOF” (XIAMEN UNIVERSITY, priority 2015, published 2018).
Read-outs that look alike come from different tables or passages of the source. Marks after values point to notes of the source that are not given here.

Legend:
full-length FXR = biological target: T1, full-length FXR (Homo sapiens, UniProt Q96RI1); assay: Cell-based FXR transactivation, EcRE luciferase reporter in COS-7 cells; details: for Cell-based FXR transactivation Fold changes by 5 μM compound: positive: induction, minus: repression; for EC50 / fold induction at 5 µM: EcRE luciferase reporter; for Cell-based FXR transactivation Fold changes by 5 μM compound / fold induction at 5 µM: 5 μM compound
T1 construct: The cells were co-transfected with plasmids encoding full-length FXR and the cognate luciferase reporter EcRE-Luc; expressed in transfected cells; host or cells: COS-7
T1 sequence (Q96RI1 1-486): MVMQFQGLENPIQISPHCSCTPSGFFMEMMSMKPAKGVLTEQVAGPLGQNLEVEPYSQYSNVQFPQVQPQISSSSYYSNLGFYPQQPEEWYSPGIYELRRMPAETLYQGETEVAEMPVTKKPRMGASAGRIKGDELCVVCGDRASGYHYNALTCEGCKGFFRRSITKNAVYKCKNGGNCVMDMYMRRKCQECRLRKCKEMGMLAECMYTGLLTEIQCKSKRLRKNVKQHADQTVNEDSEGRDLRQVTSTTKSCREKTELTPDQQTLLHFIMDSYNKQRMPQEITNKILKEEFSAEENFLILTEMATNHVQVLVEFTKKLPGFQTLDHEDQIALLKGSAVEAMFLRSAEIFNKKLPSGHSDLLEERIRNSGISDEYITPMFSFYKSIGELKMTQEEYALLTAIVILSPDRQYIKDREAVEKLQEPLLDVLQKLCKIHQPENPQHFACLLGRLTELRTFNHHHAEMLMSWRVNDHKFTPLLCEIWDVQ
Method: COS-7 cells were cotransfected with plasmids encoding full length FXR.
For transient transfection assay, COS-7 cells were maintained in DMEM containing 10% fetal bovine serum and were transiently transfected using Lipofectamine 2000 (Invitrogen). Before 24 h of transfection, 24-well plates were plated. The cells were co-transfected with plasmids encoding full-length FXR and the cognate luciferase reporter EcRE-Luc. Ligands were added 5 hours after transfection. Cells were harvested 24 hours later for the luciferase assays according to the manufacturer's instructions (Dual-Luciferase® Reporter Assay System, Promega). Luciferase activities were normalized to renilla activity co-transfected as an internal control.

[1] = test system: human colorectal adenocarcinoma HCT15 cells; assay: MTT cell viability assay, HCT15; format: cell-based; details: 48 h, read-out: Cell viability as a percentage of the cells treated with DMSO, HCT15; for viability at 20 µM: HCT-15, 20 uM; for viability at 40 µM: HCT-15, 40 uM
From the text: (§1) The MTT assay is a colorimetric assay for assessing cell metabolic activity. It is widely used in high-throughput screening of antitumor drugs due to its high sensitivity and economical features. In this example, MTT was used to detect the inhibitory effects of compounds on various cancer cell lines. Cancer cells including human colorectal adenocarcinoma HCT15 cells, RA-resistant human colon cancer HCT116 cells, human cervical carcinoma Hela cells, human hepatoma HepG2 cells and human breast cancer MCF7 cells were cultured in DMEM medium containing 10% fetal bovine serum. 20 uM or 40 uM of compounds were administered to treat cells, cell viability is detected by MTT assay and expressed as a percentage of the cells treated with DMSO (Table 4).

[2] = test system: RA-resistant human colon cancer HCT116 cells; assay: MTT cell viability assay, HCT116; format: cell-based; details: 48 h, read-out: Cell viability as a percentage of the cells treated with DMSO, HCT116; for viability at 20 µM: HCT-116, 20 uM; for viability at 40 µM: HCT-116, 40 uM
From the text: as §1

[3] = test system: human hepatoma HepG2 cells; assay: MTT cell viability assay, HepG2; format: cell-based; details: 48 h, read-out: Cell viability as a percentage of the cells treated with DMSO, HepG2
From the text: as §1

[4] = test system: human cervical carcinoma Hela cells; assay: MTT cell viability assay, Hela; format: cell-based; details: 48 h, read-out: Cell viability as a percentage of the cells treated with DMSO, Hela
From the text: as §1

[5] = test system: human breast cancer MCF7 cells; assay: MTT cell viability assay, MCF-7; format: cell-based; details: 48 h, read-out: Cell viability as a percentage of the cells treated with DMSO, MCF-7
From the text: as §1

[6] = biological target: T2, FXR ligand binding domain (LBD) (Homo sapiens, UniProt Q96RI1); assay: AlphaScreen assay: FXR LBD recruitment of coregulator peptide motifs (SRC2-3, SRC1-2); format: biochemical
T2 construct: made in house
T2 sequence (Q96RI1 262-486 limits assumed): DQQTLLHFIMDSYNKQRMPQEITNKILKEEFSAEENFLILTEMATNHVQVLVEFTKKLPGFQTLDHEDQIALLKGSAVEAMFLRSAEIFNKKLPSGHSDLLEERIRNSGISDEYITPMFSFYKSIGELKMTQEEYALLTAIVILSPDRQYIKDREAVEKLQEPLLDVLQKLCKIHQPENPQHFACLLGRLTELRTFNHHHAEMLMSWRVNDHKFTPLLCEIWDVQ
Method: In search of novel ligands for FXR, we used FXR ligand binding domain (LBD) as a bait to screen chemical libraries based on AlphaScreen biochemical assay, which determines the efficacy of small molecules in influencing binding affinity of FXR with coregulator peptides (see e.g., Jin et al., (2013) Nature communications 4, 1937).
The binding of the cofactor peptide motifs to FXR ligand binding domain (LBD) in response to ligands was determined by AlphaScreen assays using a hexahistidine detection kit from Perkins-Elmer. The FXR LBD protein was purified as described previously (see e.g., Jin et al., (2013) Nature communications 4, 1937). The experiments were conducted with approximately 20-40 nM receptor LBD and 20 nM biotinylated cofactor peptides in the presence of 5 μg/ml donor and acceptor beads in a buffer containing 50 mM MOPS, 50 mM NaF, 0.05 mM CHAPS, and 0.1 mg/ml bovine serum albumin, all adjusted to a pH of 7.4.

db/db mice = assay: Hepatic triglyceride, liver histology, serum ALT and ALP in high-fat diet fed db/db mice; format: in vivo, mouse; details: for Serum ALP (U/L): vehicle 129 ± 15
Method: Liver tissues fixed in 4% paraformaldehyde in example 5 were performed for H&E staining by standard procedures. Liver tissues fixed in 4% paraformaldehyde were embedded in optimum cutting temperature compound (OCT), and cryosectioned. Frozen liver sections were stained with 0.3% oil red O according to standard procedures.
The triglyceride levels in liver tissues from mice treated with compounds were analyzed using Tissue triglyceride assay kit (Applygen, Beijing, China).
Alkaline Phosphatase (ALP) is a marker of cholestasis. Cholestasis can be suspected when there is an elevation of ALP enzymes. In fact, greater than 90% of patients with bile stasis will have an elevated alkaline phosphatase. […] The aminotransferase is used to evaluate the presence of hepatitis and may be elevated in cholestasis or with common bile duct obstruction. In this example, 8-10 week age db/db mice were fed with high-fat diet and treated with 10 mg/kg of compounds once daily for 10 days as in Example 5. The activities of serum ALP and ALT were analyzed using ALP kit and ALT kit, respectively (Nanjing Jiancheng Engineering Institute, China).

[7] = SRC1-2 peptide, Table 1, read-out: EC50 (μM) of FXR binding by AlphaScreen assay recruit SRC1-2
[8] = SRC2-3 peptide, Table 1, read-out: EC50 (μM) of FXR binding by AlphaScreen assay recruit SRC2-3
[9] = SRC1-2 peptide, Table 2, read-out: EC50 (μM) of FXR binding by AlphaScreen assay recruit SRC1-2
[10] = SRC2-3 peptide, Table 2, read-out: EC50 (μM) of FXR binding by AlphaScreen assay recruit SRC2-3
[11] = 10 mg/kg once daily for 10 days
[12] = 10 mg/kg once daily for 10 days, vehicle 377 ± 48, Table 17

Row | Compound | Cell-based FXR transactivation Fold changes by 5 μM compound (full-length FXR; Table 2) | EC50 (full-length FXR; Table 2) [nM] | viability at 20 µM [1] [%] | viability at 40 µM [1] [%] | viability at 20 µM [2] [%] | viability at 40 µM [2] [%] | viability at 20 µM [3] [%] | viability at 40 µM [3] [%] | viability at 20 µM [4] [%] | viability at 40 µM [4] [%] | viability at 20 µM [5] [%] | viability at 40 µM [5] [%] | EC50 [6, 9] [µM] | EC50 [6, 10] [µM] | also measured
1 | O=C(OC1CCC2CCCCC2C1)c1ccc([N+](=O)[O-])cc1 (stereo not shown) [XD-26, decahydro-naphthalen-2-yl 4-nitrobenzoate] | −2 | < 1000 | 86 ± 2 | 56 ± 2 | 100 ± 2 | 92 ± 2 | 100 ± 2 | 100 ± 2 | 87 | 70 ± 2 | 100 ± 2 | 92 ± 2 |  |  | 
2 | Nc1cccc(C(=O)OCC23CC4CC(CC(C4)C2)C3)c1 [Tricyclo-[3.3.1.1^3,7]decane-1-methanol, 1-(3-aminobenzoate)] |  |  |  |  |  |  |  |  |  |  |  |  |  |  | EC50 [6, 7]: < 1 µM; EC50 [6, 8]: < 1 µM; fold induction at 5 µM (full-length FXR; Table 1): > 10; EC50 (full-length FXR; Table 1): < 1000 nM
3 | Cc1cc(C(=O)OC2CC3CCC2(C)C3(C)C)ccc1F (stereo not shown) [XD-1, 1,7,7-trimethyl-bicyclo[2.2.1]-heptan-2-yl 4-fluoro-3-methylbenzoate] | 5 | 1000 to 10000 | 93 ± 2 | 42 ± 3 | 96 ± 2 | 62 ± 3 | 100 ± 2 | 62 ± 7 | 100 ± 5 | 70 ± 3 | 100 ± 2 | 65 | 1 to 10 | 1 to 10 | 
4 | Nc1ccc(C(=O)OC2CC3CCC2C3)cc1 (stereo not shown) [XD-22, bicyclo[2.2.1]-heptan-2-yl 4-aminobenzoate] | 3 | > 1000 | 100 ± 4 | 100 ± 4 | 89 ± 1 | 65 ± 4 | 100 ± 3 | 100 ± 8 | 100 ± 2 | 100 ± 4 | 100 ± 2 | 100 ± 1 | 1 to 10 | 1 to 10 | 
5 | O=C(Oc1ccc(O)cc1)C12CC3CC(CC(C3)C1)C2 [Tricyclo-[3.3.1.1^3,7]decane-1-carboxylic acid, 4-hydroxy-phenyl ester] |  |  |  |  |  |  |  |  |  |  |  |  |  |  | EC50 [6, 7]: < 1 µM; EC50 [6, 8]: < 1 µM; fold induction at 5 µM (full-length FXR; Table 1): > 10; EC50 (full-length FXR; Table 1): < 1000 nM
6 | O=C(OC1CCCCCCC1)C1CCC(O)CC1 (stereo not shown) [XD-19, cyclooctyl 4-hydroxy-cyclohexane-carboxylate] | 1.5 |  |  |  |  |  |  |  |  |  |  |  |  |  | 
7 | CC1(C)C2CCC1(C)C(OC(=O)c1ccc([N+](=O)[O-])cc1)C2 (stereo not shown) [XD-14, 1,7,7-trimethyl-bicyclo[2.2.1]-heptan-2-yl 4-nitrobenzoate] | 3 | 1000 to 10000 | 64 ± 4 | 58 ± 4 | 60 ± 3 | 42 ± 3 | 83 | 77 ± 1 | 90 ± 1 | 80 ± 5 | 91 ± 7 | 84 ± 2 |  |  | Serum ALP (U/L) (db/db mice; [11]): 86 ± 20^a U/L; Serum ALT (U/L) (db/db mice; [12]): 62 ± 11^c U/L
8 | CC1(C)C2CCC1(C)C(OC(=O)C1CCC(N)CC1)C2 (stereo not shown) [XD-21, 1,7,7-trimethyl-bicyclo[2.2.1]-heptan-2-yl 4-aminocyclo-hexane-carboxylate] | 1.5 |  |  |  |  |  |  |  |  |  |  |  |  |  | 
9 | COc1cc(C(=O)OC2CC3CCC2(C)C3(C)C)ccc1F (stereo not shown) [XD-3, 1,7,7-trimethyl-bicyclo[2.2.1]-heptan-2-yl 4-fluoro-3-methoxybenzoate] | 5 | 1000 to 10000 | 73 ± 5 | 40 ± 1 | 80 ± 4 | 41 ± 4 | 100 ± 3 | 70 ± 3 | 100 ± 1 | 66 ± 3 | 100 ± 4 | 40 | 1 to 10 | 1 to 10 | Hepatic triglyceride (mM/g) (db/db mice; 10 mg/kg for 10 days, vehicle 148 ± 14): 80 ± 19 ^a mM/g; Serum ALT (U/L) (db/db mice; 10 mg/kg for 10 days, vehicle 377 ± 48, Table 15): 185 ± 29 ^a U/L
10 | Cc1cc(C(=O)OC2CCC3CCCCC3C2)ccc1F (stereo not shown) [XD-34, decahydro-naphthalen-2-yl 4-fluoro-3-methylbenzoate] | 2 | 1000 to 10000 | 100 ± 6 | 100 ± 6 | 98 ± 6 | 94 ± 6 | 100 ± 6 | 88 ± 6 | 98 ± 6 | 97 ± 6 | 100 ± 6 | 99 ± 6 | < 1 | < 1 | Serum ALP (U/L) (db/db mice; [11]): 91 ± 18^a U/L; Serum ALT (U/L) (db/db mice; [12]): 73 ± 20^b U/L
11 | COc1ccc(OC(=O)C23CC4CC(CC(Cl)(C4)C2)C3)cc1 [Tricyclo-[3.3.1.1^3,7]decane-1-carboxylic acid, 3-chloro-, 4-methoxyphenyl ester] |  |  |  |  |  |  |  |  |  |  |  |  |  |  | EC50 [6, 7]: < 1 µM; EC50 [6, 8]: < 1 µM; fold induction at 5 µM (full-length FXR; Table 1): > 10; EC50 (full-length FXR; Table 1): < 1000 nM
